Laboratory results as given in patent US9926281B2 (priority 2014, dated 2018).
Read-outs that look alike come from different tables or passages of the source.

Columns and labels:
rnADAMTS-5 (1-564-6H) = rnADAMTS-5 (1-564-6H) (Rattus norvegicus, UniProt Q6TY19); details: read-out: Rat ADAMTS-5 potency IC50
human TACE [1] = target: T1, human TACE (Homo sapiens (Human), UniProt P78536); details: read-out: TACE potency IC50
human MMP13 [2] = target: T2, human MMP13 (Homo sapiens (Human), UniProt P45452); details: read-out: hMMP-13 potency IC50
Method: The reaction is initiated by adding to the assay plate 520 MMP-fret substrate XV (10 μL, 4 μM) in the same buffer.

human ADAMTS-5 [3] = target: T3, human ADAMTS-5 (Homo sapiens (Human), UniProt Q9UNA0); details: read-out: hADAMTS-5 potency IC50
human TACE [4] = target: T1, human TACE; assay: biochemical
human ADAMTS-5 [5] = target: T3, human ADAMTS-5; assay: biochemical
Method: Finally, the fluorescence is read on the Envision (Perkin Elmer) after an incubation of 90 min at 37° C.

human MMP13 [6] = target: T2, human MMP13; assay: biochemical
Method: Human MMP13 is preactivated by incubated the enzyme in the same buffer complemented with 1 mM freshly prepared p-Aminophenylmercuric acetate (AMPA) for 1 hour at 37° C.

T3 sequence (Q9UNA0 262-930): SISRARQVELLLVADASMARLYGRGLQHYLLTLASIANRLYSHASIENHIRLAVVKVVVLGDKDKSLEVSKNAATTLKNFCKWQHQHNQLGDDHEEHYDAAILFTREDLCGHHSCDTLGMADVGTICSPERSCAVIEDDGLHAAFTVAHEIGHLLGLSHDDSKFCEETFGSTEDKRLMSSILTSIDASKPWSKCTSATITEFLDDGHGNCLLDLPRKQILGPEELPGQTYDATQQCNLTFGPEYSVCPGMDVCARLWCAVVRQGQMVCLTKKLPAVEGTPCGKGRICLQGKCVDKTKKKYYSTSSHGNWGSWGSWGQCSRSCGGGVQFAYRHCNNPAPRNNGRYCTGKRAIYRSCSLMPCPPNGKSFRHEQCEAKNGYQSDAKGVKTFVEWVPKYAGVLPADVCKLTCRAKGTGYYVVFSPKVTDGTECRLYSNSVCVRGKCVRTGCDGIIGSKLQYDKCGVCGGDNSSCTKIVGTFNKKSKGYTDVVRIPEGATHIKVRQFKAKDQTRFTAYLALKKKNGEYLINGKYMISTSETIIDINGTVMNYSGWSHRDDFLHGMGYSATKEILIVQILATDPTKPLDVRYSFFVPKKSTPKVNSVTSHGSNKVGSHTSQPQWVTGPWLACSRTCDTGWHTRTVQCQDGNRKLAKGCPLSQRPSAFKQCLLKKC
T1 sequence (P78536 whole entry, looked up, change not shown): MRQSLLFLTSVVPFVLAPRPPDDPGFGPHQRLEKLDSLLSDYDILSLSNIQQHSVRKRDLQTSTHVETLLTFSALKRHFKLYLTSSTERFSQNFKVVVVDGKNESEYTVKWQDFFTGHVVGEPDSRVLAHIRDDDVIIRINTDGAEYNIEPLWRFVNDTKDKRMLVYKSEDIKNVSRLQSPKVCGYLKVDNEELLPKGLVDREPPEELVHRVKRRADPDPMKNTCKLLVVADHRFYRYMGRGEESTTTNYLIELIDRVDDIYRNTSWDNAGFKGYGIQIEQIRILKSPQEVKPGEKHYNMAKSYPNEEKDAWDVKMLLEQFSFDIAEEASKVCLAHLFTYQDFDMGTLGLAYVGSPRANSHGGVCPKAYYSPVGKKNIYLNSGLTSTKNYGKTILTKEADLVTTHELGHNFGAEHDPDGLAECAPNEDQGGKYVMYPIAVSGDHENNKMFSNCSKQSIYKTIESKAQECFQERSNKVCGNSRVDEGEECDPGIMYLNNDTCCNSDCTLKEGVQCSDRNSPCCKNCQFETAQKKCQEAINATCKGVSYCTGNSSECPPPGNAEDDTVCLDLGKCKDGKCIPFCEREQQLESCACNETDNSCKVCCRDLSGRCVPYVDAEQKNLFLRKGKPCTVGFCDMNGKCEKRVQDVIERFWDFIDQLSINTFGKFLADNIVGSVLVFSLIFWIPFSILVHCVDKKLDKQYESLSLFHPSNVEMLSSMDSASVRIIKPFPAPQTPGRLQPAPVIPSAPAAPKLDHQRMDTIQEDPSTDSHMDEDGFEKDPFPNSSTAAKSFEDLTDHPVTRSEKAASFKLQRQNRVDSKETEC

For `Cc1c(Cl)cccc1N1CCN(C(=O)CCC2(C)NC(=O)NC2=O)CC1` (stereo not drawn) [compound 18, 5-[3-[4-(3-chloro-2-methyl-phenyl)piperazin-1-yl]-3-oxo-propyl]-5-methyl-imidazolidine-2,4-dione], the IC50 (rnADAMTS-5 (1-564-6H)) was 930 nM, the IC50 (human TACE [1]) was over 4000 nM and the IC50 (human MMP13 [2]) was over 20000 nM. For the same molecule, the IC50 (human ADAMTS-5 [3]) was 675 nM.
Molecule `Cc1c(Cl)cccc1N1CCN(C(=O)CCC2(c3ccccc3)NC(=O)NC2=O)CC1` (stereo not drawn) [compound 21, 5-[3-[4-(3-chloro-2-methyl-phenyl)piperazin-1-yl]-3-oxo-propyl]-5-phenyl-imidazolidine-2,4-dione] has an IC50 (rnADAMTS-5 (1-564-6H)) of 162 nM, an IC50 (human TACE [1]) of 2060 nM and an IC50 (human MMP13 [2]) of over 20000 nM. For the same molecule, the IC50 (human ADAMTS-5 [3]) was 166 nM.
For `Cc1ccccc1N1CCN(C(=O)CCC2(c3ccccc3)NC(=O)NC2=O)CC1` (stereo not drawn) [compound 7, 5-[3-[4-(o-tolyl)piperazin-1-yl]-3-oxo-propyl]-5-phenyl-imidazolidine-2,4-dione], the IC50 (rnADAMTS-5 (1-564-6H)) was 272 nM, the IC50 (human TACE [1]) was over 2930 nM and the IC50 (human MMP13 [2]) was over 20000 nM. It also gave an IC50 (human ADAMTS-5 [3]) of 272 nM.
Molecule `Cc1cccc(N2CCN(C(=O)CCC3(C)NC(=O)NC3=O)CC2)c1C` (stereo not drawn) [compound 11, 5-[3-[4-(2,3-dimethylphenyl)piperazin-1-yl]-3-oxo-propyl]-5-methyl-imidazolidine-2,4-dione] has an IC50 (rnADAMTS-5 (1-564-6H)) of 1170 nM, an IC50 (human TACE [1]) of over 20000 nM and an IC50 (human MMP13 [2]) of over 20000 nM. The IC50 (human ADAMTS-5 [3]) was 988 nM.
In the case of `Cc1cc(Cl)ccc1N1CCN(C(=O)CCC2(c3ccccc3)NC(=O)NC2=O)CC1` (stereo not drawn) [compound 13, 5-[3-[4-(4-chloro-2-methyl-phenyl)piperazin-1-yl]-3-oxo-propyl]-5-phenyl-imidazolidine-2,4-dione], the IC50 (rnADAMTS-5 (1-564-6H)) is reported as 966 nM, the IC50 (human TACE [1]) is reported as 1170 nM and the IC50 (human MMP13 [2]) is reported as over 20000 nM. The IC50 (human ADAMTS-5 [3]) was 836 nM.
`Cc1cccc(N2CCN(C(=O)CCC3(c4ccccc4)NC(=O)NC3=O)CC2)c1C` (stereo not drawn) [compound 8, 5-[3-[4-(2,3-dimethylphenyl)piperazin-1-yl]-3-oxo-propyl]-5-phenyl-imidazolidine-2,4-dione] showed an IC50 (rnADAMTS-5 (1-564-6H)) of 157 nM, an IC50 (human TACE [1]) of over 3220 nM and an IC50 (human MMP13 [2]) of over 20000 nM. The IC50 (human ADAMTS-5 [3]) was 142 nM.
`Cc1ccc(Cl)cc1N1CCN(C(=O)CCC2(C)NC(=O)NC2=O)CC1` (stereo not drawn) [compound 16, 5-[3-[4-(5-chloro-2-methyl-phenyl)piperazin-1-yl]-3-oxo-propyl]-5-methyl-imidazolidine-2,4-dione] was tested, and the IC50 (rnADAMTS-5 (1-564-6H)) was 329 nM, the IC50 (human TACE [1]) was 457 nM and the IC50 (human MMP13 [2]) was over 20000 nM. The IC50 (human ADAMTS-5 [3]) was 301 nM.
Molecule `O=C1NC(=O)C(CCC(=O)N2CCN(c3ccccc3)CC2)(c2ccccc2)N1` (stereo not drawn) [compound 4, 5-[3-oxo-3-(4-phenylpiperazin-1-yl)propyl]-5-phenyl-imidazolidine-2,4-dione] has an IC50 (rnADAMTS-5 (1-564-6H)) of 66 nM, an IC50 (human TACE [1]) of over 5500 nM and an IC50 (human MMP13 [2]) of 2520 nM. It also gave an IC50 (human ADAMTS-5 [3]) of 114 nM.
`COCC1(CC(C)C(=O)N2CCN(c3cncc(F)c3)[C@@H](C)C2)NC(=O)NC1=O` (stereo partly drawn) [compound 364, 5-[3-[(3S)-4-(5-fluoro-3-pyridyl)-3-methyl-piperazin-1-yl]-2-methyl-3-oxo-propyl]-5-(methoxymethyl)imidazolidine-2,4-dione] was tested, and the IC50 (human TACE [4]) was over 20000 nM and the IC50 (human ADAMTS-5 [5]) was 92 nM.
`O=C1NC(=O)C(CCC(=O)N2CCN(c3ccc(Cl)c(F)c3)CC2)(c2ccccc2)N1` (stereo not drawn) [compound 10, 5-[3-[4-(4-chloro-3-fluoro-phenyl)piperazin-1-yl]-3-oxo-propyl]-5-phenyl-imidazolidine-2,4-dione] gave an IC50 (rnADAMTS-5 (1-564-6H)) of 41 nM, an IC50 (human TACE [1]) of over 2790 nM and an IC50 (human MMP13 [2]) of 285 nM. The IC50 (human ADAMTS-5 [3]) was 56 nM.
`C[C@H]1CN(C(=O)CCC2(c3ccc(C(F)(F)F)nc3)NC(=O)NC2=O)CCN1c1cc(F)cc(F)c1` (stereo partly drawn) [compound 335, 5-[3-[(3S)-4-(3,5-difluorophenyl)-3-methyl-piperazin-1-yl]-3-oxo-propyl]-5-[6-(trifluoromethyl)-3-pyridyl]imidazolidine-2,4-dione] showed an IC50 (human TACE [4]) of over 4000 nM and an IC50 (human ADAMTS-5 [5]) of 78 nM.
In the case of `O=C1NC(=O)C(CCC(=O)N2CCN(c3ccc4cnccc4c3)CC2)(c2ccccc2)N1` (stereo not drawn) [compound 14, 5-[3-[4-(6-isoquinolyl)piperazin-1-yl]-3-oxo-propyl]-5-phenyl-imidazolidine-2,4-dione], the IC50 (rnADAMTS-5 (1-564-6H)) is reported as 784 nM, the IC50 (human TACE [1]) is reported as over 4000 nM and the IC50 (human MMP13 [2]) is reported as 366 nM. The IC50 (human ADAMTS-5 [3]) was 897 nM.
Molecule `C[C@H]1CN(C(=O)CCC2(C)NC(=O)NC2=O)CCN1c1ccc(Cl)c(F)c1` (stereo partly drawn) [compound 164, 5-[3-[(3S)-4-(4-chloro-3-fluoro-phenyl)-3-methyl-piperazin-1-yl]-3-oxo-propyl]-5-methyl-imidazolidine-2,4-dione] has an IC50 (human TACE [4]) of over 20000 nM, an IC50 (human MMP13 [6]) of over 20000 nM and an IC50 (human ADAMTS-5 [5]) of 236 nM.
Work on `C[C@H]1CN(C(=O)CCC2(C3CC3)NC(=O)NC2=O)CCN1c1cccc2c1cnn2C` (stereo partly drawn) [compound 333, 5-cyclopropyl-5-[3-[(3S)-3-methyl-4-(1-methylindazol-4-yl)piperazin-1-yl]-3-oxo-propyl]imidazolidine-2,4-dione] yielded an IC50 (human TACE [4]) of over 20000 nM and an IC50 (human ADAMTS-5 [5]) of 3120 nM.
Work on `CC1(CCC(=O)N2CCN(c3ccc(Cl)cc3)CC2)NC(=O)NC1=O` (stereo not drawn) [compound 2, 5-[3-[4-(4-chlorophenyl)piperazin-1-yl]-3-oxo-propyl]-5-methyl-imidazolidine-2,4-dione] yielded an IC50 (rnADAMTS-5 (1-564-6H)) of 361 nM, an IC50 (human TACE [1]) of over 17500 nM and an IC50 (human MMP13 [2]) of 2370 nM. For the same molecule, the IC50 (human ADAMTS-5 [3]) was 274 nM.
Molecule `O=C1NC(=O)C(CCC(=O)N2CCN(c3ccc4ccccc4c3)CC2)(c2ccccc2)N1` (stereo not drawn) [compound 9, 5-[3-[4-(2-naphthyl)piperazin-1-yl]-3-oxo-propyl]-5-phenyl-imidazolidine-2,4-dione] has an IC50 (rnADAMTS-5 (1-564-6H)) of 331 nM, an IC50 (human TACE [1]) of 2500 nM and an IC50 (human MMP13 [2]) of 1480 nM. It also gave an IC50 (human ADAMTS-5 [3]) of 316 nM.
